Measurements reported in patent US20090023718A1 (Aton Pharma, Inc., priority 2003, published 2009).
Like-named read-outs stand apart in the source and are kept apart here.

How the values were obtained:
[1] = tested on: murine erythroleukemia cell line SC9; assay: MTS assay (Cell Titer 96 Aqueous One Solution Cell Proliferation Assay); type: cell-based; conditions: Mus musculus; SC9 cells, 48 hours incubation with increasing concentrations, inhibition of proliferation; mean ± spread (N)
Description: The novel compounds of the present invention were tested for their ability to inhibit proliferation of the murine erythroleukemia cell line SC9.
The MTS assay, also referred to as the Cell Titer 96 Aqueous One Solution Cell Proliferation Assay, is a colorimetric method for determining the number of viable cells in proliferation, cytotoxicity or chemosensitivity assays. The MTS reagent contains a novel tetrazolium compound [3-(4,5-dimethylthiazol-2-yl)-5-(3-carboxymethoxyphenyl)-2-(4-sulfophenyl)-2H-tetrazolium, inner salt] and electron coupling reagent (phenazine ethosulfate; PES). Murine erythroleukemia cells (SC-9) were incubated with vehicle or increasing concentrations of compound for 48 hours. Cell proliferation was quantitated by adding a small amount of the MTS reagent directly to culture wells, incubating for 1-4 hours and then recording the absorbance at 490 nm with a 96-well plate reader. The quantity of formazan product, as measured by […] absorbance, is directly proportional to the number of living cells in culture.

[2] = target: T1, histone deacetylase, subtype 1 (HDAC1) (Homo sapiens, UniProt Q13547); assay: HDAC1-Flag assay (in vitro fluorescent deacetylation assay); type: biochemical; conditions: epitope-tagged human HDAC1 complex, substrate at Km, mean ± spread (N), read-out: HDAC Inhibition (IC50) nm
T1 construct: Flag; made in house
Description: Novel compounds were tested for their ability to inhibit histone deacetylase, subtype 1 (HDAC1) using an in vitro deacetylation assay. The enzyme source for this assay was an epitope-tagged human HDAC1 complex immuno-purified from stably expressing mammalian cells. The substrate consisted of a commercial product containing an acetylated lysine side chain (BIOMOL Research Laboratories, Inc., Plymouth Meeting, Pa.). Upon deacetylation of the substrate by incubation with the purified HDAC1 complex, a fluorophore is produced that is directly proportional to the level of deacetylation.

[3] = Table 1, compounds of formula II
[4] = Table 3, compounds of formula IV
[5] = Table 4, compounds of formula V
[6] = Table 5, other HDAC inhibitors of formula I

T1 sequence (Q13547 whole entry): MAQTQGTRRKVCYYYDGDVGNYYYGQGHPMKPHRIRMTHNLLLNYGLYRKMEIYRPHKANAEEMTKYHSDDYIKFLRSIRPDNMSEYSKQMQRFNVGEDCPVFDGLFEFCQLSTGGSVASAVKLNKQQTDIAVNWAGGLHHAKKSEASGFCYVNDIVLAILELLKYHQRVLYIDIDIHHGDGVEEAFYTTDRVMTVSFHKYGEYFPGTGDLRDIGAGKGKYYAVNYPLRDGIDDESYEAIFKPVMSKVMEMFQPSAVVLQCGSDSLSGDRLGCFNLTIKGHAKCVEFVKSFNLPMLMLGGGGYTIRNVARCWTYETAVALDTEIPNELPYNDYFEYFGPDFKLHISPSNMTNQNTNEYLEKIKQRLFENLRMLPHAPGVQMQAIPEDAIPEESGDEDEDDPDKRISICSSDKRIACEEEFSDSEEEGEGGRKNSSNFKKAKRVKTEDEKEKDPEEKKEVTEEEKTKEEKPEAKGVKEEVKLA

Compound | IC50 [1] [nM] | IC50 [2, 3] [nM] | also measured
O=C(CCCCCC(=O)N(CC(=O)Nc1nc2ccccc2s1)CC(=O)Nc1nc2ccccc2s1)NO [Compound 3, Heptanedioic acid bis-(benzothiazol-2-ylcarbamoylmethyl)-amide hydroxyamide] | 50 ± 27.7 | 9.5 ± 4.9 | 
O=C(CCCCCC(=O)N(CC(=O)Nc1ccc(F)cc1)CC(=O)Nc1ccc(F)cc1)NO [Compound 4, Heptanedioic acid bis-[(4-fluoro-phenylcarbamoyl)-methyl]-amide hydroxyamide] | 128 | 16 | 
O=C(CCCCCC(=O)N(CC(=O)NCCc1ccccc1)CC(=O)Nc1ccccc1)NO [Compound 8, Heptanedioic acid hydroxyamide (phenethylcarbamoyl-methyl)-phenylcarbamoylmethyl-amide] | 852 | 26 ± 5.6 | 
O=C(CCCCCC(=O)N(CC(=O)Nc1ccccc1)CC(=O)NC1CCCCC1)NO [Compound 11, Heptanedioic acid cyclohexylcarbamoylmethyl-phenylcarbamoylmethyl-amide hydroxyamide] | 705 | 34.5 ± 12.7 | 
COc1ccc2nc(NC(=O)CN(CC(=O)Nc3nc4ccc(OC)cc4s3)C(=O)CCCCCC(=O)NO)sc2c1 [Compound 34, Heptanedioic acid bis-[(6-methoxy-benzothiazol-2-ylcarbamoyl)-methyl]-amide hydroxyamide] | 397 ± 98.2 | 7.6 ± 5.6 | 
Cc1cccc2sc(NC(=O)CN(CC(=O)Nc3nc4c(C)cccc4s3)C(=O)CCCCCC(=O)NO)nc12 [Compound 36, Heptanedioic acid bis-[(4-methyl-benzothiazol-2-ylcarbamoyl)-methyl]-amide hydroxyamide] | 275 ± 19 | 14.5 ± 4.9 | 
O=C(CCCCCC(=O)N(CC(=O)NC1CCc2ccccc21)CC(=O)NC1CCc2ccccc21)NO (centres unmarked) [Compound 37, Heptanedioic acid bis-(indan-1-ylcarbamoylmethyl)-amide hydroxyamide] | 388 | 71 ± 1.4 | 
O=C(CCCC(=O)N1CCN(c2ccc(Cl)cc2)CC1)NO [Compound 73, 5-[4-(4-Chloro-phenyl)-piperazin-1-yl]-5-oxo-pentanoic acid hydroxyamide] |  |  | IC50 [2, 4]: 988 ± 93.3 nM
O=C(CCCCC(=O)N1CCN(c2ccccc2)CC1)NO [Compound 74, 6-Oxo-6-(4-phenyl-piperazin-1-yl)-hexanoic acid hydroxyamide] |  |  | IC50 [2, 4]: 1350 ± 106 nM
O=C(CCCCC(=O)N1CCN(c2cccc(Cl)c2)CC1)NO [Compound 75, 6-[4-(3-Chloro-phenyl)-piperazin-1-yl]-6-oxo-hexanoic acid hydroxyamide] |  |  | IC50 [2, 4]: 621 ± 94 nM
O=C(CCCCC(=O)N1CCN(c2ccc(Cl)cc2)CC1)NO [Compound 76, 6-[4-(4-Chloro-phenyl)-piperazin-1-yl]-6-oxo-hexanoic acid hydroxyamide] |  |  | IC50 [2, 4]: 475 ± 9.1 nM
O=C(CCCCCCC(=O)N1CCN(c2cccc(Cl)c2)CC1)NO [Compound 77, 8-[4-(3-Chloro-phenyl)-piperazin-1-yl]-8-oxo-octanoic acid hydroxyamide] |  |  | IC50 [2, 4]: 39 ± 2.8 nM
O=C(CCCCCCCCC(=O)N1CCN(c2ccc(Cl)cc2)CC1)NO [Compound 79, 10-[4-(4-Chloro-phenyl)-piperazin-1-yl]-10-oxo-decanoic acid hydroxyamide] |  |  | IC50 [2, 4]: 169 ± 30.4 nM
O=C(CCCCCCN(Cc1ccccc1)Cc1ccccc1)NO [Compound 80] |  |  | IC50 [2, 5]: 374 ± 39.5 nM
O=C(CCCCCCN(CCc1c[nH]c2ccccc12)Cc1ccc(Br)cc1)NO [Compound 82] |  |  | IC50 [2, 5]: 188 ± 72.8 nM
O=C(CCCCCCCN(CCc1c[nH]c2ccccc12)Cc1ccc(Br)cc1)NO [Compound 83] |  |  | IC50 [2, 5]: 204 ± 58.6 nM
CN(CCCCCC(=O)NO)CC(=O)NCc1ccccc1 [Compound 85] |  |  | IC50 [2, 6]: 571 ± 52.3 nM
CN(CCCCCC(=O)NO)CC(=O)NCCc1ccccc1 [Compound 86] |  |  | IC50 [2, 6]: 247 ± 33.2 nM
Hexanedioic acid bis-(quinolin-8-ylcarbamoylmethyl)-amide hydroxyamide [Compound 15] |  | 82 ± 9.8 | 

More lines, main results first:

IC50 [1] [nM] | IC50 [2, 3] [nM] | Compound | also measured
304 ± 83.4 | 20.5 ± 0.7 | O=C(CCCCCC(=O)N(CC(=O)Nc1ccccc1)CC(=O)Nc1ccccc1)NO [Compound 6, Heptanedioic acid bis-phenylcarbamoylmethyl-amide hydroxyamide] | 
46 ± 10.9 | 25 ± 21.2 | O=C(CCCCCC(=O)N(CC(=O)Nc1ccccc1)CC(=O)Nc1cccc2cccnc12)NO [Compound 7, Heptanedioic acid hydroxyamide phenylcarbamoylmethyl-(quinolin-8-ylcarbamoylmethyl)-amide] | 
52 ± 24.9 | 26.5 ± 6.3 | O=C(CCCCCC(=O)N(CC(=O)Nc1cccc2cccnc12)CC(=O)Nc1cccc2cccnc12)NO [Compound 9, Heptanedioic acid bis-(quinolin-8-ylcarbamoylmethyl)-amide hydroxyamide] | 
340 | 89.5 ± 12 | O=C(CCCCCC(=O)N(CC(=O)Nc1ccc(C(F)(F)F)cc1)CC(=O)Nc1ccc(C(F)(F)F)cc1)NO [Compound 25, Heptanedioic acid bis-[(4-trifluoromethyl-phenylcarbamoyl)-methyl]-amide hydroxyamide] | 
586 | 22.5 ± 16.2 | O=C(CCCCCC(=O)N(CC(=O)Nc1ccc2c(c1)OCO2)CC(=O)Nc1ccc2c(c1)OCO2)NO [Compound 29, Heptanedioic acid bis-(benzo[1,3]dioxol-5-ylcarbamoylmethyl)-amide hydroxyamide] | 
645 | 10.6 ± 7.7 | O=C(CCCCCC(=O)N(CC(=O)Nc1nc2ccc(Cl)cc2s1)CC(=O)Nc1nc2ccc(Cl)cc2s1)NO [Compound 35, Heptanedioic acid bis-[(6-chloro-benzothiazol-2-ylcarbamoyl)-methyl]-amide hydroxyamide] | 
346 | 31.5 ± 12 | O=C(CCCCCC(=O)N(CC(=O)Nc1nc2ccc(F)cc2s1)CC(=O)Nc1nc2ccc(F)cc2s1)NO [Compound 39, Heptanedioic acid bis-[(6-fluoro-benzothiazol-2-ylcarbamoyl)-methyl]-amide hydroxyamide] | 
332 |  | O=C(CCCCCCN(CC(=O)Nc1ccccc1)CC(=O)Nc1ccccc1)NO [Compound 41, 7-(Bis-phenylcarbamoylmethyl-amino)-heptanoic acid hydroxyamide] | IC50 ([2]; Table 2, compounds of formula III): 18.5 ± 3.5 nM
934 |  | O=C(CCCCCCN(CCc1ccccc1)Cc1ccccc1)NO [Compound 81] | IC50 [2, 5]: 159 ± 14.1 nM
